Read-outs that look alike come from different tables or passages of the source.
Experiments:
[1] = Pharmacokinetics of LUM001 after oral solution and capsule in dogs; assay type: in vivo, Beagle dogs; details: for Cmax / Tmax / AUC(0-t) / bioavailability: female, Beagle, dog, plasma; for Cmax / Tmax / AUC(0-t): po, 7.5 mg/kg; for AUC(0-t): read-out: AUC(0-24 h); for bioavailability: read-out: BA (bioavailability)
Procedure: Three fasted female Beagle dogs were administered LUM001 either as an oral solution at doses of 1 or 7.5 mg LUM001 free form/kg or in an oral capsule at a dose of 7.5 mg LUM001 free form/kg in a cross-over design. A dose of 7.5 mg LUM001 free form/kg was also administered as an oral solution to fed beagle dogs to evaluate the effect of food on plasma concentrations of LUM001.
Blood samples of approximately 3 mL was collected by venipuncture or indwelling catheter into chilled tubes containing heparin at the following timepoints: 0 (predose), 0.5, 1, 1.5, 2, 3, 5, 6, 8, 10, and 24 hours. The plasma samples were prepared by centrifugation of blood within 30 minutes after sample collection. All samples were stored at −20° C.±5° C. until analysis to study the relative exposures of LUM001 free form after capsule or oral solution dosing.

[2] = Single-dose [14C]LUM001 oral solution: radioactivity in plasma, blood, urine, feces; assay type: in vivo, human
Procedure: This was an open-label, one-period, single-dose study of a [^14C]LUM001 oral solution. Eight healthy male subjects received an oral solution of 5 mg [^14C]LUM001 (containing approximately […] per dose). Blood samples were collected at predose and for 72 hours postdose, urine samples were collected predose and for 168 hours postdose and feces were collected predose and for 216 hours postdose. Plasma, whole blood, urine and fecal samples were analyzed for total radioactivity, and selected fecal samples were analyzed for LUM001 and relevant metabolite concentrations. In addition, metabolic profiles in selected fecal samples were obtained using high performance liquid radio chromatography (HPLRC).

[3] = Pharmacokinetics of LUM002 100 mg single oral dose in humans; assay type: in vivo, human
Procedure: Healthy male subjects, from 18 to 45 years of age, were given a single oral solution dose (100 mg in 100 mL) of LUM002 under fasting conditions. Blood samples for the determination of LUM002 plasma concentration were collected predose and 0.5, 1, 2, 3, 4, 5, 6, 8, 10, 12, 16, 24, and 48 hours after treatment administration. Plasma was obtained by centrifugation and […] processed for protein precipitation, centrifuged again to remove the precipitate and the supernatant prepared for LC-MSMS analysis. LUM002 plasma concentrations were determined using a validated liquid chromatography tandem mass spectrometry (LC-MSMS) assay with a lower limit of quantification (LLOQ) of 0.1 ng/mL. LUM002 plasma concentrations were used to determine the following pharmacokinetic parameters using standard noncompartmental techniques: Cmax, Tmax, AUClast, and, if applicable due to the low-absorbable characteristics of LUM002, also AUC, AUC0-24 and t1/2.

[4] = oral capsule 7.5 mg/kg free form, fasted
[5] = oral solution 7.5 mg/kg free form, fed
[6] = 5 mg [14C]LUM001 oral solution, eight healthy male subjects
[7] = 5 mg [14C]LUM001 oral solution, analyte in feces
[8] = 100 mg single oral dose, Geometric Mean, N=6
[9] = 100 mg single oral dose, Median, N=6
[10] = 100 mg single oral dose, Subject 250001149
[11] = 100 mg single oral dose, Subject 250001150
[12] = 100 mg single oral dose, Subject 250001151
[13] = 100 mg single oral dose, Subject 250001154
[14] = 100 mg single oral dose, Subject 250001155
[15] = 100 mg single oral dose, Subject 750001156
[16] = 100 mg single oral dose, mean, N=6

Q: Which results are given for `CCCCC1(CCCC)CS(=O)(=O)c2ccc(N(C)C)cc2[C@@H](c2ccc(OCc3ccc(C[N+]45CCN(CC4)CC5)cc3)cc2)[C@H]1O` [LUM001]?
A: Cmax [1, 4]: 4.24 ng/mL; Tmax [1, 4]: 5 h; AUC(0-t) [1, 4]: 33.7 ng·h/mL; Cmax [1, 5]: 1.28 ng/mL; Tmax [1, 5]: 0.5 h; AUC(0-t) [1, 5]: 3.9 ng·h/mL; bioavailability [1, 4]: < 0.1%; bioavailability ([1]; oral solution 1 mg/kg free form, fasted): < 0.1%; BA (bioavailability) ([1]; oral solution 7.5 mg/kg free form, fasted): <0.1%; BA (bioavailability) [1, 5]: <0.1%; Fecal radioactivity associated with unchanged free LUM001 ([2]; 5 mg [14C]LUM001 oral solution): 94%; Radioactive dose detected in plasma, whole blood or urine [2, 6]: Less than 1%; Total radioactive dose detected in feces [2, 6]: 72%; Mean Percent of Dose in Feces [2, 7]: 65.0%; Percent of Fecal Radioactivity [2, 7]: 94.4%; Cumulative % of Total Dose ([2]; Feces incl. Toilet Paper (cumulative recovery in toilet paper from first five fecal samples)): 72.466%; Cumulative % of Total Dose ([2]; Feces, 0-24 hr): 30.376%; Cumulative % of Total Dose ([2]; Feces, 24-48 hr): 49.878%; Cumulative % of Total Dose ([2]; Feces, 48-72 hr): 67.630%; Cumulative % of Total Dose ([2]; Feces, 72-96 hr): 69.653%; Cumulative % of Total Dose ([2]; Feces, 96-120 hr): 71.606%; Cumulative % of Total Dose ([2]; Feces, 120-144 hr): 71.771%; Cumulative % of Total Dose ([2]; Feces, 144-168 hr): 71.815%; Cumulative % of Total Dose ([2]; Feces, 168-192 hr): 71.885%; Cumulative % of Total Dose ([2]; Feces, 192-216 hr): 71.885%; Radioactive Concentration ([2]; Plasma, 0.5 hr): BLQ; Radioactive Concentration ([2]; Plasma, 1 hr): BLQ; Radioactive Concentration ([2]; Plasma, 1.5 hr): BLQ; Radioactive Concentration ([2]; Plasma, 2 hr): BLQ; Radioactive Concentration ([2]; Plasma, 2.5 hr): BLQ; Radioactive Concentration ([2]; Plasma, 3 hr): BLQ; Radioactive Concentration ([2]; Plasma, 4 hr): BLQ; Radioactive Concentration ([2]; Plasma, 6 hr): BLQ; Radioactive Concentration ([2]; Plasma, 8 hr): BLQ; Radioactive Concentration ([2]; Plasma, 12 hr): BLQ; Radioactive Concentration ([2]; Plasma, 16 hr): 0.000 ng equivalents/mL; Radioactive Concentration ([2]; Plasma, 24 hr): BLQ; Radioactive Concentration ([2]; Plasma, 36 hr): 0.000 ng equivalents/mL; Radioactive Concentration ([2]; Plasma, 48 hr): BLQ; Radioactive Concentration ([2]; Plasma, 60 hr): BLQ; Radioactive Concentration ([2]; Plasma, 72 hr): BLQ; Cumulative % of Total Dose ([2]; Total (Urine and Feces)): 72.532%; Cumulative % of Total Dose ([2]; Urine, 0-2 hr): 0.005%; Cumulative % of Total Dose ([2]; Urine, 2-4 hr): 0.012%; Cumulative % of Total Dose ([2]; Urine, 4-8 hr): 0.028%; Cumulative % of Total Dose ([2]; Urine, 8-12 hr): 0.041%; Cumulative % of Total Dose ([2]; Urine, 12-24 hr): 0.058%; Cumulative % of Total Dose ([2]; Urine, 24-48 hr): 0.057%; Cumulative % of Total Dose ([2]; Urine, 48-72 hr): 0.062%; Cumulative % of Total Dose ([2]; Urine, 72-96 hr): 0.063%; Cumulative % of Total Dose ([2]; Urine, 96-120 hr): 0.063%; Cumulative % of Total Dose ([2]; Urine, 120-144 hr): 0.064%; Cumulative % of Total Dose ([2]; Urine, 144-168 hr): 0.066%; Radioactive Concentration ([2]; Whole Blood, 1 hr): 0.000 ng equivalents/g; Radioactive Concentration ([2]; Whole Blood, 4 hr): 0.000 ng equivalents/g; Radioactive Concentration ([2]; Whole Blood, −0.5 hr): 0.000 ng equivalents/g

Q: Which results are given for `CCCC[C@]1(CC)CS(=O)(=O)c2ccc(N(C)C)cc2[C@@H](c2cccc(NC(=O)N[C@@H]3O[C@H](COS(=O)(=O)[O-])[C@@H](O)[C@H](OCc4ccccc4)[C@H]3O)c2)[C@H]1O.CCO.O.[K+]` [LUM002, potassium((2R,3R,4S,5R,6R)-4-benzyloxy-6-{3-[3-((3S,4R,5R)-3-butyl-7-dimethylamino-3-ethyl-4-hydroxy-1,1-dioxo-2,3,4,5-tetrahydro-1H-benzo[b]thiepin-5-yl)-phenyl]-ureido}-3,5-dihydroxy-tetrahydro-pyran-2-ylmethyl)sulphate ethanolate, hydrate]?
A: AUClast [3, 8]: 0.187 ng·h/mL; Cmax [3, 8]: 0.197 ng/mL; Tmax [3, 8]: 3.22 h; tlast [3, 8]: 4.93 h; AUClast [3, 9]: 0.148 ng·h/mL; Cmax [3, 9]: 0.216 ng/mL; Tmax [3, 9]: 5.00 h; tlag [3, 9]: 1.00 h; tlast [3, 9]: 5.00 h; AUC0-24 [3, 10]: 1.92 ng·h/mL; AUCExt [3, 10]: 39%; AUClast [3, 10]: 1.19 ng·h/mL; Cmax [3, 10]: 0.300 ng/mL; Tmax [3, 10]: 5.00 h; t1/2z [3, 10]: 3.39 h; tlag [3, 10]: 0.00 h; tlast [3, 10]: 8.00 h; AUClast [3, 11]: 0.0815 ng·h/mL; Cmax [3, 11]: 0.163 ng/mL; Tmax [3, 11]: 5.00 h; tlag [3, 11]: 4.00 h; tlast [3, 11]: 5.00 h; AUClast [3, 12]: 0.0645 ng·h/mL; Cmax [3, 12]: 0.129 ng/mL; Tmax [3, 12]: 3.00 h; tlag [3, 12]: 2.00 h; tlast [3, 12]: 3.00 h; AUClast [3, 13]: 0.215 ng·h/mL; Cmax [3, 13]: 0.269 ng/mL; Tmax [3, 13]: 6.00 h; tlag [3, 13]: 0.00 h; tlast [3, 13]: 6.00 h; AUClast [3, 14]: 0.522 ng·h/mL; Cmax [3, 14]: 0.286 ng/mL; Tmax [3, 14]: 0.50 h; tlag [3, 14]: 0.00 h; tlast [3, 14]: 4.00 h; AUClast [3, 15]: 0.0600 ng·h/mL; Cmax [3, 15]: 0.120 ng/mL; Tmax [3, 15]: 5.00 h; tlag [3, 15]: 4.00 h; tlast [3, 15]: 5.00 h; AUClast [3, 16]: 0.355 ng·h/mL; Cmax [3, 16]: 0.211 ng/mL; Tmax [3, 16]: 4.08 h; tlag [3, 16]: 1.67 h; tlast [3, 16]: 5.17 h; LUM002 dose systemically absorbed ([3]; healthy male subjects, single oral solution 100 mg, fasting): Less than 1%

Source: US20140271734A1, “BILE ACID RECYCLING INHIBITORS FOR TREATMENT OF BARRETT'S ESOPHAGUS AND GASTROESOPHAGEAL REFLUX DISEASE” (LUMENA PHARMACEUTICALS, INC., priority 2013, published 2014)
